Data from patent US9890147B2 (BAYER PHARMA AKTIENGESELLSCHAFT, priority 2012, dated 2018).

Assays:
[1] = biological target: T1, BRD4 (BD1) (Homo sapiens, UniProt O60885); assay: Binding assay BRD4/acetylated peptide H4 (TR-FRET protein-protein interaction assay)
T1 construct: with relatively long constructs also being possible, preferably amino acids 44-168; made in house; host or cells: E. coli
In short: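 Displacement of biotin-Ac-H4 peptide from His6-tagged BRD4(BD1), final usually 10 nM, read as Eu-streptavidin to anti-His-XL665 TR-FRET (665/620 nm). Compounds tested at 11 doses up to 20 μM in duplicate, pH 7.5 HEPES, 22 °C then 4 °C incubation; IC50 by 4-parameter regression.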

[2] = system: MOLM-13 cells; assay: Cell proliferation assay (alamarBlue), MOLM-13; format: cell-based; details: Homo sapiens, 96 hours incubation, inhibition of cell proliferation
In short: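 IC50 = concentration giving 50% growth inhibition relative to buffer-treated cells, after subtracting baseline fluorescence taken before dosing. Compound applied at 1E-5 to 1E-8 M for 96 h at 37 °C in RPMI1640 with 10% FCS; alamarBlue signal at 530/590 nm.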

[3] = system: MV4-11 cells; assay: Cell proliferation assay (alamarBlue), MV4-11; format: cell-based; details: Homo sapiens, 72 hours incubation, inhibition of cell proliferation
In short: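 Cells seeded at 5000/well in RPMI1640 + 10% FCS, incubated overnight at 37° C, then treated with compound (1E-5 to 1E-8 M) for 72 h at 37° C. Viability by alamarBlue fluorescence (ex 530/em 590 nm); pre-treatment readings subtracted, IC50 derived versus buffer-treated cells.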

[4] = system: B16F10 cells; assay: Cell proliferation assay (alamarBlue), B16F10; format: cell-based; details: Mus musculus, B16-F10, 96 hours incubation, inhibition of cell proliferation
In short: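 alamarBlue fluorescence (ex 530/em 590 nm) read after overnight seeding at 300-500 cells/well in DMEM + 10% FCS, then after 96 h at 37 °C with compound at 1E-8 to 1E-5 M. Baseline subtracted from endpoint, compared with buffer-treated cells; IC50 = concentration giving 50% proliferation inhibition.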

[5] = system: LOX-IMVI cells; assay: Cell proliferation assay (alamarBlue), LOX-IMVI; format: cell-based; details: Homo sapiens, 72 hours incubation, inhibition of cell proliferation
In short: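 alamarBlue fluorescence (530 nm excitation, 590 nm emission) measured before dosing and after 72 h at 37° C exposure to 1E-5–1E-8 M compound; 1000 cells/well plated in RPMI1640/10% FCS the night before. IC50 from baseline-corrected signal relative to buffer-treated wells.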

[6] = system: MOLP-8 cells; assay: Cell proliferation assay (alamarBlue), MOLP-8; format: cell-based; details: Homo sapiens, 120 hours incubation, inhibition of cell proliferation
In short: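 MOLP-8 cells in RPMI1640 with 20% FCS, 4000 cells/well, treated overnight after seeding with substance at 1E-5 to 1E-8 M for 120 h at 37° C. Viability read by alamarBlue fluorescence (ex 530, em 590); pre-treatment values subtracted, compared with buffer-only cells to derive IC50.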

[7] = system: KMS-12-PE cells; assay: Cell proliferation assay (alamarBlue), KMS-12-PE; format: cell-based; details: Homo sapiens, 120 hours incubation, inhibition of cell proliferation
In short: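 KMS-12-PE myeloma cells in RPMI1640 with 20% FCS were exposed to compound (1E-5 to 1E-8 M) for 120 h at 37° C. AlamarBlue fluorescence (ex 530, em 590 nm) read before and after treatment; the difference versus buffer-treated cells gave IC50.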

[8] = system: LAPC-4 cells; assay: Cell proliferation assay (alamarBlue), LAPC-4; format: cell-based; details: Homo sapiens, LAPC4; inhibition of cell proliferation, LAPC-4 (prostate cancer), 1 nM methyltrienolone, 168 hours
[9] = system: MDA-MB-231 cells; assay: Cell proliferation assay (alamarBlue), MDA-MB-231; format: cell-based; details: Homo sapiens; inhibition of cell proliferation, MDA-MB-231 (breast carcinoma), 96 hours
Procedure: In accordance with the invention, the capability of the substances to inhibit cell proliferation was determined Cell viability was determined using the alamarBlue® reagent (Invitrogen) in a Victor X3 Multilabel Reader (Perkin Elmer). The excitation wavelength was 530 nm and the emission wavelenth […].
The MDA-MB-231 cells (DSMZ, ACC 732) were sown at a concentration of 4000 cells/well in 100 μl growth medium (DMEM/Ham's F12 medium, 10% FCS) on 96-well microtitre plates. The Caov-3 cells (ATCC, HTB-75) were sown at a concentration of 2000 cells/well in 100 μl growth medium (MEM Earle's medium, 10% FCS) on 96-well microtitre plates.
After an overnight incubation at 37° C., the fluorescence values (CI values) were determined. The plates were then treated with various substance dilutions (1E-5 M, 3E-6 M, 1E-6M, 3E-7 M, 1E-7 M, 3E-8 M, 1E-8 M) and incubated at 37° C. for 72 (MV4-11-, LOX-IMVI cells), 96 (MOLM-13-, B16F10-, MDA-MB-431-, Caov-3 cells), 120 (MOLP-8-, KMS-12-PE cells) or 168 (LAPC-4 cells) hours. The fluorescence values (CO values) were then determined. For the data analysis, the CI values were subtracted from the CO values and the results were compared between cells treated with different dilutions of the substance or with buffer solution only. These were used to calculate the IC 50 values (substance concentration required for 50% inhibition of cell proliferation).

[10] = system: Caov-3 cells; assay: Cell proliferation assay (alamarBlue), Caov-3; format: cell-based; details: Homo sapiens; inhibition of cell proliferation, Caov-3 (ovarian carcinoma), 96 hours
In short: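 Caov-3 (MEM Earle's, 10% FCS, 2000 cells/well) and MDA-MB-231 (DMEM/Ham's F12, 10% FCS, 4000 cells/well) were treated after overnight attachment with 1E-5 to 1E-8 M compound. Caov-3 exposure was 96 h. alamarBlue fluorescence (ex 530, em 590 nm) was read after background subtraction of day-0 values, and IC50 calculated versus buffer-treated cells.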

IC50 [1]: 20 nM
IC50 [2]: 70 nM
IC50 [3]: 50 nM
IC50 [4]: 100 nM
IC50 [9]: 140 nM
SMILES: CNC(=O)N1N=C(c2ccc(N3CCC(O)CC3)cc2)c2cc(OC)c(OC)cc2C[C@@H]1C [Example 130.1, (4S)-1-[4-(4-hydroxypiperidin-1-yl)phenyl]-7,8-dimethoxy-N,4-dimethyl-4,5-dihydro-3H-2,3-benzodiazepine-3-carboxamide]
IC50 [5]: 190 nM
IC50 [6]: 50 nM
IC50 [7]: 70 nM
IC50 [8]: 50 nM
IC50 [10]: 3 nM
